Measurements: patent publication US20020061836A1, “Methods for altering SXR activation using peptide mimetic HIV protease inhibitor SXR ligands” (priority 2000, published 2002)

Experiments:
[1] = target: T1, human SXR ligand binding domain (Homo sapiens, UniProt O75469); assay: Gal-L-SXR (Gal-SXR) Gal4 reporter transient transfection assay in CV-1 cells
T1 sequence (O75469 107-434 limits assumed): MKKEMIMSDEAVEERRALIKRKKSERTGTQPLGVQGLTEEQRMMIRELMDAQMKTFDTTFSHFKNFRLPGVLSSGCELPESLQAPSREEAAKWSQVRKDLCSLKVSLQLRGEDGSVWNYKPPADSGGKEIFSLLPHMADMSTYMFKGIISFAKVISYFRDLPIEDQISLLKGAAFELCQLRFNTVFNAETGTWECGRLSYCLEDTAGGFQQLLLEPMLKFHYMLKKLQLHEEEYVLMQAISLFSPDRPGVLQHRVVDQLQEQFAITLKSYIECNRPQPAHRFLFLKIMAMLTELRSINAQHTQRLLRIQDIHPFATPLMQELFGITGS
Excerpt: Use of a standard model heterologous cell system to reconstitute SXR agonist and antagonist responsiveness allows SXR activity to be monitored in the absence of the metabolic events which may obscure the process being tested. Any suitable heterologous cell system may be used to test the activation of potential or known SXR nuclear receptor ligands, as long as the cells are capable of being transiently transfected with the appropriate DNA which expresses receptors, reporter genes, response elements, and the like. Cells which constitutively express one or more of the necessary genes may be used as well. Cell systems that are suitable for the transient expression of mammalian genes and which are amenable to maintenance in culture are well known to those skilled in the art. […] Suitable reporter gene constructs are well known to skilled workers in the fields of biochemistry and molecular biology. Activity of the reporter gene can be conveniently normalized to the internal control and the data plotted as fold activation relative to untreated cells.
The Gal4 reporter activity was normalized to the internal β-galactosidase control and the data plotted as fold activation relative to untreated cells. All transfections contained the Gal4 reporter and a β-galactosidase expression vector as an internal control.
Izbicka et al., Ann. Oncol.
Gal-PXR containing the ligand binding domain of mouse PXR (#AF031814) was obtained from Bruce Blumberg.
Transient Transffection Assays—CV-1 cells were grown and transfected as described.

P-glycoprotein = P-glycoprotein (Mus musculus, UniProt P21447); details: orally administered; cited from earlier work
CV-1 cells = assay: Potential cytotoxic effects at the concentrations and treatment times used; details: at the indicated concentrations and treatment times
mouse PPARδ = target: T2, mouse PPARδ (Mus musculus, UniProt P35396); assay: Nuclear receptor specificity transfection assay; format: cell-based; details: 10 μM paclitaxel
T2 construct: expressed in transfected cells; host or cells: CV-1
T2 sequence (P35396 1-440): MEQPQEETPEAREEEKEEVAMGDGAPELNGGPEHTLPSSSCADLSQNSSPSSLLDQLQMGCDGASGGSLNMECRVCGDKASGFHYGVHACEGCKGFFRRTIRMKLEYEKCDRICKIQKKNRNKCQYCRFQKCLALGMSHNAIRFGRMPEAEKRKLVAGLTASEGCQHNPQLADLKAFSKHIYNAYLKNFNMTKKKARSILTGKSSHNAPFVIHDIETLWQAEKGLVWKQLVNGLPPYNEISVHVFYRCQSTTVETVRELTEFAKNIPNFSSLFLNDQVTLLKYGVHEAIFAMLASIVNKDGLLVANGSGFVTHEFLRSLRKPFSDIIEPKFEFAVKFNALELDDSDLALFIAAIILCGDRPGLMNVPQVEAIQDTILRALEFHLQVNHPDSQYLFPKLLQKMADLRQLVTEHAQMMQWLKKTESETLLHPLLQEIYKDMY

Chain of P-glycoprotein (P21447 whole entry): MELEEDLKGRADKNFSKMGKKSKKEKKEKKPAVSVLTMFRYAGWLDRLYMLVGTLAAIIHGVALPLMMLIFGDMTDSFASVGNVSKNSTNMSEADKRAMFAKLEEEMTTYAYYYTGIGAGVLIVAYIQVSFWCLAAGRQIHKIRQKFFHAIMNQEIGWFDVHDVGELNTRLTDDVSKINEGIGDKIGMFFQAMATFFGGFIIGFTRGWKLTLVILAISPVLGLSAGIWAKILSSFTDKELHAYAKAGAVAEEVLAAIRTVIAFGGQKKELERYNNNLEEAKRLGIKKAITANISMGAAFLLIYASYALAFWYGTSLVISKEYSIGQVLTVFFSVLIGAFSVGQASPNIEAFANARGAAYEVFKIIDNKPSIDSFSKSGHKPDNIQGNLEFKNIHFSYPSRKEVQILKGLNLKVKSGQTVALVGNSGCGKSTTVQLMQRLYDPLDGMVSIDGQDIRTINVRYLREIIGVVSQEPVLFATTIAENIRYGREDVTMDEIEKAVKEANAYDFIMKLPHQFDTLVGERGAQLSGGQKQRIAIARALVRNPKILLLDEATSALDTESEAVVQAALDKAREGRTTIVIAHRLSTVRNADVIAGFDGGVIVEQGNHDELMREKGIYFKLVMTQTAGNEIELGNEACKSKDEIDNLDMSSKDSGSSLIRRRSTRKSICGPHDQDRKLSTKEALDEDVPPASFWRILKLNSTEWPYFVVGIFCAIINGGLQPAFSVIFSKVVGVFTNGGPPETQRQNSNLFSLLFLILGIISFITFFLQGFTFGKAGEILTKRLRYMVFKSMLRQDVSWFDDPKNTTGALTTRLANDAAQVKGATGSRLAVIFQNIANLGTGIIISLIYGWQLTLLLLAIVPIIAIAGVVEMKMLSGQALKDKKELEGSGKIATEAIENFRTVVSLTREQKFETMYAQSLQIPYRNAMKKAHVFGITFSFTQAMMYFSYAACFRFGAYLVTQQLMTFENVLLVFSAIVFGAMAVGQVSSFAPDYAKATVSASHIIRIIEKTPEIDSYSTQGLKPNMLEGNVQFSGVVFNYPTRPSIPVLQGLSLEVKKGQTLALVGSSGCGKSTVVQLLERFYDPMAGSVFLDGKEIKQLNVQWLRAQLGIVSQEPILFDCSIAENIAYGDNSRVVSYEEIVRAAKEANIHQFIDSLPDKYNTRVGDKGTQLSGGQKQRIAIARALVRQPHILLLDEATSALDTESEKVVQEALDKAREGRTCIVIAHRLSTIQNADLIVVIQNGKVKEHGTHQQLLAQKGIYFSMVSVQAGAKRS

EC50 [1]: ~5 µM
effect on PPARδ reporter activity (mouse PPARδ): no effect
Structure (SMILES): CC(=O)O[C@H]1C(=O)[C@@]2(C)[C@H]([C@H](OC(=O)c3ccccc3)[C@]3(O)C[C@H](OC(=O)[C@H](O)[C@@H](NC(=O)c4ccccc4)c4ccccc4)C(C)=C1C3(C)C)[C@]1(OC(C)=O)CO[C@@H]1C[C@@H]2O [paclitaxel]
fecal excretion for which P-glycoprotein is responsible (P-glycoprotein): 85%
potential cytotoxic effects (CV-1 cells): minimal
